In the NIST ThermoML archive (doi:10.1016/j.jct.2016.06.001):
± gives the expanded uncertainty stated by the source.

Conditions: Liquid, Frequency=8 MHz, Pulse-echo method

OCCO [1,2-ethanediol]
Conditions	speed of sound [m/s]
273.15 K, 99 kPa	1713.8 ± 0.82
273.15 K, 5204 kPa	1727.5 ± 0.82
273.15 K, 10344 kPa	1740.9 ± 0.83
273.15 K, 15152 kPa	1753.2 ± 0.83
273.15 K, 20194 kPa	1765.9 ± 0.84
273.15 K, 25132 kPa	1778.1 ± 0.84
273.15 K, 30171 kPa	1789.9 ± 0.85
293.15 K, 99 kPa	1665.8 ± 0.8
293.15 K, 5051 kPa	1679.8 ± 0.81
293.15 K, 10070 kPa	1693.5 ± 0.81
293.15 K, 15176 kPa	1707.2 ± 0.82
293.15 K, 20158 kPa	1720.2 ± 0.82
293.15 K, 25108 kPa	1732.9 ± 0.83
293.15 K, 30024 kPa	1745.3 ± 0.83
313.15 K, 100 kPa	1618.5 ± 0.78
313.15 K, 5031 kPa	1633.1 ± 0.79
313.15 K, 10028 kPa	1647.3 ± 0.79
313.15 K, 15117 kPa	1661.7 ± 0.8
313.15 K, 20088 kPa	1675.3 ± 0.81
313.15 K, 25102 kPa	1688.7 ± 0.81
313.15 K, 29983 kPa	1701.6 ± 0.81
333.15 K, 99 kPa	1570.7 ± 0.76
333.15 K, 5054 kPa	1586.1 ± 0.77
333.15 K, 10048 kPa	1601.1 ± 0.78
333.15 K, 15067 kPa	1615.8 ± 0.78
333.15 K, 20106 kPa	1630.3 ± 0.79
333.15 K, 25103 kPa	1644.3 ± 0.79
333.15 K, 29958 kPa	1657.7 ± 0.8
353.15 K, 100 kPa	1521.8 ± 0.74
353.15 K, 5079 kPa	1538.1 ± 0.75
353.15 K, 10048 kPa	1553.8 ± 0.76
353.15 K, 15054 kPa	1569.3 ± 0.76
353.15 K, 20071 kPa	1584.4 ± 0.77
353.15 K, 25078 kPa	1599.1 ± 0.78
353.15 K, 29995 kPa	1613.3 ± 0.78

CC(O)CO (stereo not given) [1,2-propanediol]
Conditions	speed of sound [m/s]
303.15 K, 99 kPa	1494.4 ± 0.75
303.15 K, 5091 kPa	1513.5 ± 0.75
303.15 K, 10060 kPa	1532 ± 0.76
303.15 K, 15098 kPa	1550.2 ± 0.77
303.15 K, 20084 kPa	1567.7 ± 0.78
303.15 K, 25068 kPa	1584.7 ± 0.78
303.15 K, 30167 kPa	1601.6 ± 0.79
313.15 K, 99 kPa	1465.9 ± 0.74
313.15 K, 5014 kPa	1485.5 ± 0.74
313.15 K, 10053 kPa	1504.8 ± 0.75
313.15 K, 15011 kPa	1523.2 ± 0.76
313.15 K, 20095 kPa	1541.5 ± 0.77
313.15 K, 25202 kPa	1559.4 ± 0.77
313.15 K, 30222 kPa	1576.5 ± 0.78
333.15 K, 100 kPa	1408.9 ± 0.71
333.15 K, 5039 kPa	1429.7 ± 0.72
333.15 K, 10054 kPa	1450.1 ± 0.73
333.15 K, 15107 kPa	1469.8 ± 0.74
333.15 K, 20131 kPa	1489 ± 0.74
333.15 K, 25131 kPa	1507.4 ± 0.75
333.15 K, 30024 kPa	1524.9 ± 0.76
353.15 K, 99 kPa	1350.9 ± 0.69
353.15 K, 5042 kPa	1373 ± 0.7
353.15 K, 10055 kPa	1394.6 ± 0.71
353.15 K, 15135 kPa	1415.6 ± 0.72
353.15 K, 20093 kPa	1435.5 ± 0.72
353.15 K, 25086 kPa	1454.8 ± 0.73
353.15 K, 30207 kPa	1474.1 ± 0.74

CC(C)CO [2-methyl-1-propanol]
Conditions	speed of sound [m/s]
253.15 K, 102 kPa	1347.3 ± 0.68
253.15 K, 5144 kPa	1373.7 ± 0.69
253.15 K, 10257 kPa	1399.1 ± 0.7
253.15 K, 15122 kPa	1422.2 ± 0.71
253.15 K, 20400 kPa	1446.6 ± 0.72
253.15 K, 25315 kPa	1468 ± 0.73
253.15 K, 30039 kPa	1488.7 ± 0.73
273.15 K, 105 kPa	1274.2 ± 0.65
273.15 K, 5154 kPa	1302.8 ± 0.66
273.15 K, 10139 kPa	1329.4 ± 0.67
273.15 K, 15072 kPa	1354.7 ± 0.68
273.15 K, 20215 kPa	1380 ± 0.69
273.15 K, 25138 kPa	1403.2 ± 0.7
273.15 K, 30242 kPa	1426.4 ± 0.71
293.15 K, 102 kPa	1204.9 ± 0.62
293.15 K, 5004 kPa	1234.9 ± 0.64
293.15 K, 10097 kPa	1264.2 ± 0.65
293.15 K, 15140 kPa	1291.7 ± 0.66
293.15 K, 20220 kPa	1318.2 ± 0.67
293.15 K, 25063 kPa	1342.5 ± 0.68
293.15 K, 30100 kPa	1366.7 ± 0.69
313.15 K, 104 kPa	1138.1 ± 0.6
313.15 K, 5135 kPa	1171.1 ± 0.61
313.15 K, 10050 kPa	1201.4 ± 0.62
313.15 K, 15190 kPa	1231.5 ± 0.64
313.15 K, 20126 kPa	1259 ± 0.65
313.15 K, 25019 kPa	1285.1 ± 0.66
313.15 K, 30259 kPa	1311.7 ± 0.67
333.15 K, 100 kPa	1071.8 ± 0.57
333.15 K, 5187 kPa	1108 ± 0.59
333.15 K, 10181 kPa	1141.3 ± 0.6
333.15 K, 15331 kPa	1173.6 ± 0.61
333.15 K, 20135 kPa	1202 ± 0.62
333.15 K, 25174 kPa	1230.4 ± 0.64
333.15 K, 30144 kPa	1257 ± 0.65
353.15 K, 104 kPa	1004.1 ± 0.55
353.15 K, 5055 kPa	1042.8 ± 0.56
353.15 K, 10093 kPa	1079.4 ± 0.58
353.15 K, 15238 kPa	1114.2 ± 0.59
353.15 K, 20157 kPa	1145.4 ± 0.6
353.15 K, 25111 kPa	1175.1 ± 0.61
353.15 K, 30108 kPa	1203.6 ± 0.62
